The compounds below were run on fighting behaviour of isolated mice (assay: test on antiagressive activity in isolated mice). Conditions: Mus musculus, po, 1 h; male albino mice kept isolated for 4 weeks; administered orally; fighting behaviour evaluated sixty minutes after administration; 5 mice per dose.
Format: in vivo
Protocol: The ED50-values mentioned in the table were determined in a test on antiagressive activity in isolated mice (Advances in Pharmacol. 5, (1967), 79). In this test, male albino mice were kept isolated for a period of 4 weeks and then selected for the test on the basis of fighting behaviour present. The selection criterion is the occurrence of 3 or more fighting periods within 3 minutes after a mouse which has not been kept isolated has been placed in the cage of the mouse kept isolated. The compounds to be investigated were administered orally to the selected mice. Per dose 5 mice were used. Sixty minutes after the administration of the compound to be investigated the animals were evaluated again for fighting behaviour. […] The ED50-value in mg of active substance per kg of body weight was calculated from the results obtained.

In order of falling ED50:
1. CC(=O)NCCN1CCN(c2ccccc2Cl)CC1 [US pat. spec. 2.833.770, reference compound]  18 mg/kg
2. CC(=O)NCCN1CCN(c2ccccc2)CC1 [US pat. spec. 2.722.529 ex.12, reference compound]  15 mg/kg
3. COC(=O)NCCN1CCN(c2cccc(Cl)c2)CC1.Cl.Cl [R4=CH3O, R5=H, R6=3-Cl, T=O, m=0, p=2, 1-[2-(N-methoxycarbonylamino)ethyl]-4-(3-chlorophenyl)piperazine dihydrochloride]  3.5 mg/kg
4. CCN(CCN1CCN(c2cccc(C(F)(F)F)c2)CC1)C(C)=O [R4=CH3, R5=C2H5, R6=3-CF3, T=O, m=0, p=2, 1-[2-(N-acetyl-N-ethylamino)ethyl]-4-(3-trifluoromethylphenyl) piperazine]  3.2 mg/kg
5. CC(=O)NCCN1CCN(c2cccc(Br)c2)CC1 [R4=CH3, R5=H, R6=3-Br, T=O, m=0, p=2, 1-[2-(N-acetylamino)ethyl]-4-(3-bromophenyl)piperazine]  2.6 mg/kg
6. NC(=O)NCCN1CCN(c2cccc(Cl)c2)CC1 [R4=NH2, R5=H, R6=3-Cl, T=O, m=0, p=2, 1-[2-(N-aminocarbonylamino)ethyl]-4-(3-chlorophenyl)piperazine]  2.3 mg/kg
7. NC(=O)NC(=O)NCCN1CCN(c2cccc(Cl)c2)CC1 [R4=NH2CONH, R5=H, R6=3-Cl, T=O, m=0, p=2]  2.3 mg/kg
8. NC(=O)NCC[N+]1([O-])CCN(c2cccc(C(F)(F)F)c2)CC1 [R4=NH2, R5=H, R6=3-CF3, T=O, m=1, p=2, 1-[2-(N-aminocarbonylamino)ethyl]-4-(3-trifluoromethylphenyl) piperazine 1-oxide]  1.9 mg/kg
9. CC(=O)NCCN1CCN(c2cccc(Cl)c2)CC1 [R4=CH3, R5=H, R6=3-Cl, T=O, m=0, p=2, 1-[2-(N-acetylamino)ethyl]-4-(3-chlorophenyl)piperazine]  1.8 mg/kg
10. Cl.O=CNCCN1CCN(c2cccc(C(F)(F)F)c2)CC1 [R4=H, R5=H, R6=3-CF3, T=O, m=0, p=2, 1-[2-(N-formylamino)ethyl] -4-(3-trifluoromethylphenyl)piperazine hydrochloride]  1.7 mg/kg
11. CC(=S)NCCN1CCN(c2cccc(C(F)(F)F)c2)CC1.Cl [R4=CH3, R5=H, R6=3-CF3, T=S, m=0, p=2, 1-[2-(N-thioacetylamino)ethyl]-4-(3-trifluoromethylphenyl)piperazine hydrochloride]  1.6 mg/kg
12. NC(=O)NC(=O)NCCN1CCN(c2cccc(C(F)(F)F)c2)CC1 [1 [-2-(N-allophanoylamino)ethyl]-4-(3-trifluoromethylphenyl)piperazine]  1.5 mg/kg
13. CC(=O)NCC[N+]1([O-])CCN(c2cccc(C(F)(F)F)c2)CC1 [R4=CH3, R5=H, R6=3-CF3, T=O, m=1, p=2, 1-[2-(N-acetylamino)ethyl]-4-(3-trifluoromethylphenyl)piperazine 1-oxide]  1.5 mg/kg
14. O=CNCCN1CCN(c2cccc(Cl)c2)CC1 [R4=H, R5=H, R6=3-Cl, T=O, m=0, p=2, 1-[2-(N-formylamino)ethyl]-4-(3-chlorophenyl)piperazine]  1.5 mg/kg
15. NC(=O)NCCN1CCN(c2cccc(C(F)(F)F)c2)CC1 [R4=NH2, R5=H, R6=3-CF3, T=O, m=0, p=2, 1-[2-(N-aminocarbonylamino)ethyl]-4-(3-trifluoromethylphenyl) piperazine]  1.3 mg/kg
16. CC(=O)N(C)CCN1CCN(c2cccc(C(F)(F)F)c2)CC1.Cl [R4=CH3, R5=CH3, R6=3-CF3, T=O, m=0, p=2, 1-[2-(N-acetyl-N-methylamino)ethyl]-4-(3-trifluoromethylphenyl) piperazine hydrochloride (1:1)]  0.9 mg/kg
17. CC(=O)NCCN1CCN(c2cccc(C(F)(F)F)c2)CC1 [R4=CH3, R5=H, R6=3-CF3, T=O, m=0, p=2, 1-[2-(N-acetylamino)ethyl]-4-(3-trifluoromethylphenyl)piperazine]  0.7 mg/kg
18. COC(=O)NCCN1CCN(c2cccc(C(F)(F)F)c2)CC1.Cl [R4=CH3O, R5=H, R6=3-CF3, T=O, m=0, p=2, 1-[2-(N-methoxycarbonylamino)ethyl]-4-(3-trifluoromethylphenyl) piperazine hydrochloride]  0.6 mg/kg

Source: patent EP0015615A1, “Phenyl piperazine derivatives, their preparation and antiagressive medicines containing them” (DUPHAR INTERNATIONAL RESEARCH B.V, priority 1979, dated 1980)
